The values that follow are results of earlier work, collected in patent publication US6043217A, “Amide derivative of amythiamicin” (Zaidan Hojin Biseibutsu Kagaku Kenyu Kai, priority 1996, dated 2000).

The conditions of the series: background statement on known amythiamicins; cited from earlier work.

As for `CNC(=O)CC1NC(=O)c2csc(n2)-c2ccc(-c3nc(C4=NC(C(=O)N5CCCC5C(N)=O)CO4)cs3)nc2-c2csc(n2)-c2csc(n2)C(C(C)C)NC(=O)CNC(=O)c2csc(n2)C(C(C)C)NC(=O)c2nc1sc2C` (centres unmarked) [Amythiamicin A], the solubility in water result was “hardly soluble in water”. As for `CNC(=O)CC1NC(=O)c2csc(n2)-c2ccc(-c3nc(C(=O)OCC4NC(=O)C5CCCN5C4=O)cs3)nc2-c2csc(n2)-c2csc(n2)C(C(C)C)NC(=O)CNC(=O)c2csc(n2)C(C(C)C)NC(=O)c2nc1sc2C` (centres unmarked) [Amythiamicin C, amythiamicin C], the solubility in water result is reported as “hardly soluble in water”.
